Tests used:
[1] = test system: subacute cervical spinal cord injuries (SCI); assay: Phase 1/2a cervical SCI trial: safety, adverse events; format: in vivo, human
Experimental: Study Design. The trial design was an open-label, staggered dose escalation, cross-sequential, multicenter study. Three sequential, escalating doses of AST-OPC1 were administered at a single time point between 21 and 42 days post-injury to subjects with subacute cervical spinal cord injuries (SCI). Subjects received AST-OPC1 via direct intra-spinal injection using a Syringe Positioning Device (SPD). To prevent rejection of engraftment, low dose tacrolimus was initiated 6 to 12 hours after and intra-spinal injection, and continued for 46 days, tapered from Day 46 to Day 60, and was discontinued at Day 60. Subjects were followed for 1 year following administration of AST-OPC1 under this protocol. Male or female subjects from 18 to 69 years of age at time of consent with sensorimotor complete, traumatic SCI (American Spinal Injury Association Impairment Scale A) or sensorimotor incomplete, traumatic SCI (American Spinal Injury Association Impairment Scale B). […] There was a single spinal cord lesion on a post-stabilization magnetic resonance imaging (MRI) scan, with sufficient visualization of the spinal cord injury epicenter and lesion margins to enable post-injection safety monitoring. Subjects were able to participate in an elective surgical procedure to inject AST-OPC1 21 to 42 days following SCI. Subjects received a single dose of either 2×10^6, 1×10^7, or 2×10^7 AST-OPC1 viable cells by injection, administered 21 to 42 days following SCI. The product was delivered intraoperatively into the spinal cord using the Syringe Positioning Device. The AST-OPC1 batch numbers used in this study were M08D1A, M22D1A and M25D1A. Single administration of AST-OPC1 was provided with 1 year of follow-up. Schematics of the planned study timeline, and subject screening and treatment, are provided in FIG. 6 and FIG. 7, respectively. A schematic diagram of the final open-label, staggered dose-escalation, multicenter Phase 1/2a clinical trial is shown in FIG. 8. An overview of study visits for the one-year protocol is presented in the study schema in FIG. 9.
A neurological examination was completed using the standardized International Standards for Neurological Classification of Spinal Cord Injury (ISNCSCI) examination for motor and sensory testing and for designation of the American Spinal Injury Association impairment scale. The ISNCSCI is used for efficacy with respect to improved motor function in the extremities, improved sensory function, and/or a descending neurological level. Safety assessments included physical examination, vital signs, ISNCSCI neurological examination, pain questionnaire (International Spinal Cord Injury Pain Basic Data Set, ISCIPBDS), electrocardiogram (ECG), Magnetic Resonance Imaging (MRI), laboratory tests, concomitant medications, and adverse events (AEs). Results for the ISNCSCI were listed for each subject by scheduled visit and analyzed by change in motor level and motor scores as well as other exploratory assessments of arm/hand function, self-care ability and overall volitional performance. Adverse events were tabulated by system organ class and by preferred term within system organ class according to the Medical Dictionary for Regulatory Activities (MedDRAR) Version 18.0. S[…] of the safety data was performed using descriptive statistical methods including AEs incidence, severity and relatedness to AST-OPC1, to the injection procedure for product administration, and concomitant immunosuppression with tacrolimus. The number of laboratory assessments (hematology, clinical chemistry) that were below, within, or above the normal laboratory reference range were summarized for each analyte at scheduled study visits. Vital signs were summarized by calculating the mean, standard deviation, median, and range of values at each of the protocol-specified time points.
Study Endpoints. […]

[2] = test system: T3 to T11 neurologically complete spinal cord injuries (SCI); assay: Phase 1 thoracic SCI trial of LCTOPC1 (NCT01217008): safety, adverse events; format: in vivo, human; conditions: 60 days immunosuppression
Experimental: Study design. The trial design was an open-label, multicenter study. A single dose of 2×10^6 LCTOPC1 was injected within 7 to 14 days following SCI. Subjects who received LCTOPC1 also received tacrolimus to prevent rejection. Subjects will be followed by protocol for 15 years following administration of LCTOPC1. This study was a Phase 1, multi-center, non-randomized, a single group assignment interventional clinical trial. The Participants were enrolled from one of seven centers in the United Sates. The study was registered (NCT01217008) and the primary endpoint was safety, as measured by the frequency and severity of adverse events related to LCTOPC1, the injection procedure used to administer LCTOPC1, and/or the concomitant immunosuppression administered. The secondary endpoint was neurological function as measured by sensory scores and lower extremity motor scores on […] examinations. […] The primary endpoint was safety measured by the frequency and severity of adverse events related to the OPC1 injection, the injection procedure, and/or the concomitant immunosuppression administered. The secondary endpoint was neurological function as measured by sensory scores and lower extremity motor scores as measured by the […] examinations. […] The severity of AEs and the characterization of Serious Adverse Events (SAEs) were evaluated using standard FDA criteria. […]

[3] = test system: dorsal funicular lesion (DFL) SCI model; conditions: cited from earlier work

Q: Which “AEs related to Tacrolimus that were hypomagnesemia” value ([1]; both, human, in vivo, 60 days) does the source give for `C=CC[C@@H]1/C=C(\C)C[C@H](C)C[C@H](OC)[C@H]2O[C@@](O)(C(=O)C(=O)N3CCCC[C@H]3C(=O)O[C@H](/C(C)=C/[C@@H]3CC[C@@H](O)[C@H](OC)C3)[C@H](C)[C@@H](O)CC1=O)[C@H](C)C[C@@H]2OC` [Tacrolimus, tacrolimus] here?
A: 8/11

Q: And the “Decreased Appetite: Severity” value ([1]; both, human, in vivo, 60 days)?
A: Grade 2

Q: And the “Hypomagnesemia: Days from Injection” value ([1]; both, human, in vivo, 60 days)?
A: 5 to 43 days

Q: And the “Hypomagnesemia: Severity” value ([1]; both, human, in vivo, 60 days)?
A: 1-2 Grade

Q: What about the “Nausea: Days from Injection” value ([1]; both, human, in vivo, 60 days) of the same molecule?
A: 7 days

Q: And the “Nausea: Severity” value ([1]; both, human, in vivo, 60 days)?
A: Grade 2

Q: And the “Bacterial infection: Days from Injection” value ([1]; causality Tacrolimus)?
A: 30 days

Q: And the “Bacterial infection: Outcome” value ([1]; causality Tacrolimus)?
A: Resolved

Q: What about the “Bacterial infection: Severity” value ([1]; causality Tacrolimus) of the same molecule?
A: Grade 3

Q: What about the “Decreased Appetite: Outcome” value ([1]; in vivo) of the same molecule?
A: Resolved

Q: And the “Hypomagnesemia: Outcome” value ([1]; in vivo)?
A: Resolved

Q: And the “Nausea: Outcome” value ([1]; in vivo)?
A: Resolved

Q: And the tolerability of immunosuppression ([1]; in vivo)?
A: well-tolerated

Q: And the “Grade 1 AEs possibly related specifically to tacrolimus” value [2]?
A: Seven Grade 1 AEs

Q: What about the “Grade 2 AEs possibly related specifically to tacrolimus” value [2] of the same molecule?
A: nine Grade 2 AEs

B1: Decorin: extracellular small leucine-rich proteoglycan, TGF-β1/2 antagonist; recombinant form used in rat SCI models (protein, UniProt P07585 31-359, looked up)
Decorin: DEASGIGPEVPDDRDFEPSLGPVCPFRCQCHLRVVQCSDLGLDKVPKDLPPDTTLLDLQNNKITEIKDGDFKNLKNLHALILVNNKISKVSPGAFTPLVKLERLYLSKNQLKELPEKMPKTLQELRAHENEITKVRKVTFNGLNQMIVIELGTNPLKSSGIENGAFQGMKKLSYIRIADTNITSIPQGLPPSLTELHLDGNKISRVDAASLKGLNNLAKLGLSFNSISAVDNGSLANTPHLRELHLDNNKLTRVPGGLAEHKYIQVVYLHNNNISVVGSSDFCPPGHNTKKASYSGVSLFSNPVQYWEIQPSTFRCVYVRSAIQLGNYK
Q: Which results are given for B1?
A: effect on scarring and wound cavitation ([3]; DFL SCI model, adult rats): suppressed acute scarring (fibrogenesis) and wound cavitation; axonal regrowth ([3]; Decorin-treated vs PBS-treated DFL): promoted axonal regrowth in both acute and chronic experiments; inflammation, glial scar formation, CSPG expression ([3]; after acute spinal cord injury): inhibit inflammation, glial scar formation and CSPG expression
